Consider four compounds from patent US20180280465A1 (EVER Neuro Pharma GmbH, priority 2015, published 2018).

SMILES strings stand for the structures. Read-outs that look alike come from different tables or passages of the source.

For series [1], the system named is NIH/3T3 murine fibroblasts. Description: Resazurin-fibroblast-assay for assessment of cytotoxicity. On the procedure:
The vitality of the fibroblasts was detected with the Resazurin Reagent (Resazurin sodium salt powder (Sigma Aldrich R7017-1G)). Vital and metabolically active cells reduce the non-fluorescent dye resazurin to the fluorescent dye resorufin by using NADH. The amount of fluorescence is proportional to the amount of vital cells. The fluorescence intensity at 535 nm (excitation)/595 nm (emission) is detected with a plate reader.
Cells were cultured in a culture medium (DMEM high glucose) containing 10% FBS, 2 mM L-glutamine and 100 μg/ml penicilline/streptomycin under standard cell culture conditions (37° C., 5% CO2).
The cells were then incubated with the respective solutions in the incubator for 4 h, 18 h, or 24 h (depending on the assay protocol). For every time point a separate 96-well plate was prepared. • Day 1 or 2: Readout—Determination of the fluorescence intensity (resazurin readout): For the determination of the fluorescence intensity (resazurin readout) the medium (100 μl/well) was removed and 100 μl/well resazurin was added (final concentration 0.5 mM; 2.2 ml resazurin stock solution prepared in PBS with a final concentration of 2.5 mM was diluted in 8.8 ml proliferation medium). In the wells serving for the blank control (no cells) 100 μl/well resazurin (0.5 mM) was added. The 96-well plate was then incubated for 1 h in the incubator. The fluorescence intensity was then detected at 535 nm (excitation)/595 nm (emission) with a plate reader.
(In general: The colour change of resazurin is a common sign of viable cells or microbes.)

The conditions of series [2]: in NaCl solution; cited from earlier work.
For series [3] the following is noted: cited from earlier work.

`O=C1O[C@H]([C@@H](O)CO)C(O)=C1O` [Ascorbate, (5R)-[(1S)-1,2-dihydroxyethyl]-3,4-dihydroxyfuran-2(5H)-one]: the “effect on the toxic effect of oxoapomorphine” value in series [1] was “had no beneficial effect if the oxidative degradation product oxo-apomorphine was already present in the formulation”.

On to `N[C@@H](CCC(=O)N[C@@H](CS)C(=O)NCC(=O)O)C(=O)O` [Glutathione, (2S)-2-amino-4-{[(1R)-1-[(carboxymethyl)carbamoyl]-2-sulfanylethyl]carbamoyl}butanoic acid], for which, in series [1] (NIH/3T3 cells, oxoapomorphine present), the “effect on the toxic effect of oxoapomorphine” value is reported as “could abolish the toxic effect of oxoapomorphine”.

For the compound `CC(O)CO` (stereo not drawn) [α-propylene glycol, propane-1,2-diol], the “influence of isotonization agent on the cytotoxic effects in the cell culture system” value in series [1] (NIH/3T3 fibroblasts) is given as “did not have any influence (negative or positive) on the cytotoxic effects”.

The term solubility denotes the dissolved amount per volume that the medium holds. As to `CN1CCc2cccc3c2[C@H]1Cc1ccc(O)c(O)c1-3` [apomorphine, (6aR)-6-methyl-5,6,6a,7-tetrahydro-4H-dibenzo[de,g]quinoline-10,11-diol], the solubility in series [2] was less than 10000 µg/mL. Further, the “duration of effect (mean)” value in series [3] (single dose) is 40 min. Moreover, the “incidence of nodule formation” value in series [3] (subcutaneous apomorphine infusion therapy, meta analysis) is on record as 70%. The “patients terminating therapy because of irritations at the injection site” value in series [3] (subcutaneous infusion, within one year) is reported as 70%.
